Bounds are passed on as bounds.

`COc1ccc2sc(C(=O)Nc3ccc(S(=O)(=O)OC)cc3)c(OC(C)C)c2c1` gave a melting point of 176 to 177 °C.

The molecule `CCCCn1c(=O)c2nc(-c3ccc(/C=C/C(=O)O)cc3)[nH]c2n(C)c1=O` gave a melting point of more than 300 °C. Then `O=C(O)CCCCCCCn1c(-c2cc(I)c(O)c(I)c2)nc(-c2ccccc2)c1-c1ccccc1`, with 186 °C.

`Cc1cc(-c2ccnc(C#N)c2)n(-c2ccc(F)cc2)n1` returned a melting point of 94 to 95 °C. Molecule `COCNc1c(C#N)cnn1-c1ccc(Cl)c(Cl)c1Cl` came in with a melting point of 129 to 130 °C. Then `O=C(O)C1=Cc2cc(Cl)cc(Cl)c2NC1C(F)(F)F` (centres undefined), with 223 to 226 °C. The figure for `CC(C)(C)OC(=O)c1nn(-c2ccc(Cl)cc2Cl)c(-c2ccc(Cl)cc2)c1CBr` is 139 °C; for `CNc1nc(Br)cc(Sc2ccccc2)n1` it is 122 to 124 °C. For `COC(=O)CN(c1ccc(Cl)cc1C(=O)c1ccccc1F)S(=O)(=O)c1ccc(N)cc1`, the melting point lay within 168 to 170 °C. As to `CCOC(=O)c1nn(-c2ccc(OC(F)(F)F)cc2)c2cccc(F)c2c1=O`, the melting point came out at 178 °C. Then `CCC1(CCCCCl)C(=O)Nc2cc(F)ccc21` (centres undefined), with 95 to 97 °C; and `COc1cc(/C=C/C=C/C(=O)NCCN2CCC(c3c[nH]c4ccccc34)CC2)cc(OC)c1OC(C)=O`, with 169 to 172 °C. The figure for `Cc1cc(N)nc(CCCCCCCCCCO)c1O` is 138 to 139 °C; for `OCC1(c2ccccc2)CCN(Cc2ccccc2)CC1` it is 127 °C.

For `CS(=O)(=O)OCc1cc(OCc2ccccc2)cc(OCc2ccccc2)c1`, the melting point was 85 to 86 °C. The figure for `COc1ccc([C@@]2(C)CNC(=O)O2)cc1OC1CCCC1` is 80 °C.

Consider `CCOC(=O)C(Cc1cccc(OCC(F)(F)C(F)F)c1)C(=O)c1ccc(F)cc1` (centres undefined), for which the melting point lay in the range of 55 to 56 °C. The figure for `CCOC(=O)c1cc(C)sc1NN=c1c(C(=O)OCC)c[nH]c2ccccc12` is 173 to 174 °C; for `CSC(=O)c1c(O)ccc2ccccc12` it is 111 to 112 °C. `CC(C)(C)C(NC(=O)Cc1ccc(Cl)cc1)NC(Cc1cccc2ncccc12)=NC#N` (centres undefined) came in with a melting point of 186 to 188 °C.

For the molecule `O=C(CCn1c2ccc(O)cc2c2c3c(c(-c4ccccc4Cl)cc21)C(=O)NC3=O)NS(=O)(=O)c1ccccc1`, the melting point is 291 to 293 °C. `COc1ccc2c(c1)C(=O)C(Cc1ccccc1)CO2` (centres undefined) showed a melting point of 71 to 72 °C. The figure for `COc1cc(OC)nc(Oc2cccc(O)c2C(=O)OCc2ccccc2)n1` is 63 to 65 °C; for `CN(Cc1ccc(OC(=O)Cc2ccccc2Nc2c(Cl)cccc2Cl)cc1)CC(C)(C)SN=O` it is 126 to 130 °C. Molecule `CCc1cccc(C)c1CNc1nc(OCCOC)cc2c1nc(C)n2C` gave a melting point of 105 °C. The figure for `COc1ccc2nc3[nH]nc(N)c3cc2c1` is more than 300 °C; for `Cc1c(F)c(F)cc(F)c1C(=O)O` it is 104 to 105 °C. The figure for `COc1ccc2c(C(F)(F)F)c(CC(=O)O)c(=O)oc2c1` is 198 to 200 °C. Then `O=C(Nc1ccccn1)c1nc(-c2ccccc2)c2ccccc2c1O`, with 228 to 230 °C. The molecule `CCOC(=O)C1CN(C2CC2)c2nc3cc(F)c(F)cc3cc2C1=O` (centres undefined) showed a melting point of 172 °C. Then `CC(=O)Oc1cc2c(s1)CCN(C(C(=O)C1CC1)c1ccccc1F)C2` (centres undefined), with 120 to 122 °C; and `CNc1ccc(-c2cc[nH]n2)cc1`, with 78 to 86 °C. The figure for `CCc1ccccc1-c1cccc(-n2cnc(-c3nc(C)no3)c2)c1` is 150 to 156 °C; for `CC(C)(C)C(=O)c1c[nH]c2ncc(-c3ccc(N4CCN(S(C)(=O)=O)CC4)cc3)nc12` it is 288 to 290 °C. Turning to `CC(c1oc2ccc(Br)cc2c(=O)c1-c1ccccc1F)n1cnc2c(N)ncnc21` (centres undefined), the melting point is 256 to 258 °C. Then `OCC1OC(n2c(Cl)nc3cc(Cl)c(Cl)cc32)C(O)C1O` (centres undefined), with 175 to 176 °C; and `CC[C@H](C)[C@H](NC(=O)[C@H](Cc1ccccc1)NC(=O)OCc1ccccc1)C(=O)OC`, with 94.5 to 95.5 °C.

The molecule `O=C(N[C@@H](CN1CCC(=C2c3ccccc3C=Cc3ccccc32)CC1)C(=O)O)OCc1ccccc1` registered a melting point of 178 to 179 °C. Turning to `C#Cc1cc(Nc2ncnc3cnc(N)cc23)ccc1F`, the melting point was 218 to 222 °C. Then `COc1cc2ncc(C#N)c(Nc3cccc(NC(C)=O)c3)c2cc1OC`, with 147 to 150 °C. Then `Nc1nnc(-c2ccc3occ(-c4ccccc4Cl)c3c2)o1`, with 220 to 221 °C; and `Fc1ccc(Oc2cc3c(Cl)nc(Cl)nc3cn2)c(F)c1`, with 144 to 146 °C. The figure for `COc1ccccc1N1CCN(CNC(=O)c2ccc(Cl)cc2)CC1` is 145 to 147 °C; for `CCCCCCCCCCCCCCCCCCOc1cc2ccccc2cc1O` it is 60 to 62 °C; for `CCCCOc1ccc(S(=O)(=O)C2(C(=O)O)CCN(Cc3cccc(Oc4ccccc4)c3)CC2)cc1` it is 92.5 °C.

In turn, `COC(=O)CCCCCCC(=O)c1ccc(OC)cc1` came in with a melting point of 57 to 58 °C. Then `CCNc1ccc(-c2ccnc3c(C(=O)c4cccs4)cnn23)cc1`, with 130 to 132 °C. For the molecule `O=C1CCSc2cc(F)ccc21`, the melting point was in the range of 61 to 66 °C. Then `C=CC(O)C1OC(C)(C)OC1C(O)CO` (centres undefined), with 73 to 74 °C; and `CN(C)CCCNC(=O)c1ccc(-c2ccc3nnn(Cc4ccc5ncccc5c4)c3n2)cc1`, with 132 to 135 °C.

`CC(=O)N1CCC(=O)NCc2ccccc21` came in with a melting point of 236 to 239 °C. The figure for `CC=CCN1c2cc(Cl)ccc2NC(=O)[C@@H]1C` is 87 to 88 °C; for `CCC=CCn1c(=O)sc2c(=O)n(C)c(N)nc21` it is 184 to 187 °C; for `Cc1ccc(C(=O)NC(NC(=O)Nc2cccnc2)C(Cl)(Cl)Cl)cc1` (centres undefined) it is 162 to 163 °C. The figure for `CCOC(=O)C(C)Oc1ncn(-c2cccc(Br)c2)n1` (centres undefined) is 83 to 85 °C; for `O=c1c(C2=Nc3ccccc3S(=O)(=O)N2)c(O)c2ccccc2n1CC1CCCC1` it is 255 to 256 °C; for `CS(=O)(=O)c1ccc(NCC(O)CO)c([N+](=O)[O-])c1` (centres undefined) it is 133 °C. The figure for `Oc1ccccc1CCC1NCCS1` (centres undefined) is 100 to 102 °C. As for `CC(C)(C)OC(=O)N1CCN(c2cccc3c(Sc4ccccc4)c[nH]c23)CC1`, the melting point lay in the range of 165 to 166 °C. The figure for `CC(C)CC1(SCCCN=[N+]=[N-])c2c([nH]c(=O)n(C)c2=O)SC1Cc1cccc2ccccc12` (centres undefined) is 94 to 96 °C; for `O=C1CC2CCc3cc(-n4ccc(=O)cc4)ccc3C2=NN1` (centres undefined) it is more than 300 °C; for `CN1C(=O)CCC2(CCC(=O)c3ccccc32)C1=O` (centres undefined) it is 136 to 138 °C.

The molecule `Cn1c(COc2ccc(C#N)cc2)nc2nc(C=O)ccc21` showed a melting point of 231 to 234 °C.

`Cc1cc(C)cc(C(=O)c2[nH]c(=O)[nH]c(=O)c2C(C)C)c1` registered a melting point of 149 to 150 °C.
